Assay results as given in patent publication US9663473B2 (Actelion Pharmaceuticals Ltd, priority 2013, dated 2017).

These compounds were tested against T1, recombinant human ALX receptor (Homo sapiens, UniProt P25090) (assay: Intracellular calcium measurements (FLIPR), ALX receptor agonistic activity). Details: HEK293-hALXR-Gα16 cells, Fluo-4 calcium signal, normalized to WKYMVm 10 nM.
T1 construct: expressed in transfected cells; host or cells: HEK293 (HEK293-hALXR-Gα16)
T1 sequence (P25090 1-351): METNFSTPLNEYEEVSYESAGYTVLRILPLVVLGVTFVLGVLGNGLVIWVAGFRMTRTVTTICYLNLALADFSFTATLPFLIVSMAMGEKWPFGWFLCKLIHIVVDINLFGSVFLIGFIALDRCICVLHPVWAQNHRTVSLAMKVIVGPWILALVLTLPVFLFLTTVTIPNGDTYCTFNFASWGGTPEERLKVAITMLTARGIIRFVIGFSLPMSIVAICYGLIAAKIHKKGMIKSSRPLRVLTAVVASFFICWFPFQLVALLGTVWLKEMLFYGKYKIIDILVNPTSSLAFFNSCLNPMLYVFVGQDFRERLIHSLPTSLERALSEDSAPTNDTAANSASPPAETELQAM
Type: cell-based
In short: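 HEK293 cells co-expressing human ALX receptor and Gα16 were loaded with 1 μM Fluo-4 AM for 60 min at 37° C., then exposed to serially diluted compounds on FLIPR Tetra. Peak fluorescence above baseline (ex 488/em 540 nm) was normalized to 10 nM WKYMVm as high control.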

Row | EC50 | Compound
1 | 50 nM | COc1ccc(C[C@@H](NC(=O)NCc2cccc(Cl)c2Cl)c2nc3ccccc3[nH]2)cc1 [Example 307, (R)-1-(1-(1H-Benzo[d]imidazol-2-yl)-2-(4-methoxyphenyl)ethyl)-3-(2,3-dichlorobenzyl)urea]
2 | 14 nM | COc1ccc(C[C@@H](NC(=O)Nc2cc(C3CC3)nn2C)c2nc3ccccc3[nH]2)cc1 [Example 314, (R)-1-(1-(1H-Benzo[d]imidazol-2-yl)-2-(4-methoxyphenyl)ethyl)-3-(3-cyclopropyl-1-methyl-1H-pyrazol-5-yl)urea]
3 | 299 nM | COc1ccc(C[C@@H](NC(=O)Nc2cccnc2)c2nc3ccccc3[nH]2)cc1 [Example 315, (R)-1-(1-(1H-Benzo[d]imidazol-2-yl)-2-(4-methoxyphenyl)ethyl)-3-(pyridin-3-yl)urea]
4 | 185 nM | COc1ccc(C[C@@H](NC(=O)N[C@H](C)c2ccc(F)cc2)c2nc3ccccc3[nH]2)cc1 [Example 320, 1-((R)-1-(1H-Benzo[d]imidazol-2-yl)-2-(4-methoxyphenyl)ethyl)-3-((R)-1-(4-fluorophenyl)ethyl)urea]
5 | 128 nM | COc1ccc(C[C@@H](NC(=O)N[C@@H](C)c2ccc(F)cc2)c2nc3ccccc3[nH]2)cc1 [Example 321, 1-((R)-1-(1H-Benzo[d]imidazol-2-yl)-2-(4-methoxyphenyl)ethyl)-3-((S)-1-(4-fluorophenyl)ethyl)urea]
6 | 585 nM | COc1ccc(C[C@@H](NC(=O)N[C@H](C)c2ccc(Br)cc2)c2nc3ccccc3[nH]2)cc1 [Example 322, 1-((R)-1-(1H-Benzo[d]imidazol-2-yl)-2-(4-methoxyphenyl)ethyl)-3-((R)-1-(4-bromophenyl)ethyl)urea]
7 | 44 nM | COc1ccc(C[C@@H](NC(=O)N[C@@H](C)c2cccc(OC)c2)c2nc3ccccc3[nH]2)cc1 [Example 323, 1-((R)-1-(1H-Benzo[d]imidazol-2-yl)-2-(4-methoxyphenyl)ethyl)-3-((S)-1-(3-methoxyphenyl)ethyl)urea]
8 | 712 nM | COc1ccc(C[C@@H](NC(=O)N[C@H](C)c2cccc(Cl)c2)c2nc3ccccc3[nH]2)cc1 [Example 324, 1-((R)-1-(1H-Benzo[d]imidazol-2-yl)-2-(4-methoxyphenyl)ethyl)-3-((R)-1-(3-chlorophenyl)ethyl)urea]
9 | 186 nM | COc1ccc(C[C@@H](NC(=O)N[C@@H](C)c2cccc(Cl)c2)c2nc3ccccc3[nH]2)cc1 [Example 325, 1-((R)-1-(1H-Benzo[d]imidazol-2-yl)-2-(4-methoxyphenyl)ethyl)-3-((S)-1-(3-chlorophenyl)ethyl)urea]
10 | 46 nM | COc1ccc(C[C@@H](NC(=O)N[C@@H](C)c2ccccc2OC)c2nc3ccccc3[nH]2)cc1 [Example 326, 1-((R)-1-(1H-Benzo[d]imidazol-2-yl)-2-(4-methoxyphenyl)ethyl)-3-((S)-1-(2-methoxyphenyl)ethyl)urea]
11 | 310 nM | COc1ccc(C[C@@H](NC(=O)N[C@H](C)c2ccccc2OC)c2nc3ccccc3[nH]2)cc1 [Example 327, 1-((R)-1-(1H-Benzo[d]imidazol-2-yl)-2-(4-methoxyphenyl)ethyl)-3-((R)-1-(2-methoxyphenyl)ethyl)urea]
12 | 152 nM | COc1ccc(C[C@@H](NC(=O)N[C@@H](C)c2ccc(Cl)cc2)c2nc3ccccc3[nH]2)cc1 [Example 328, 1-((R)-1-(1H-Benzo[d]imidazol-2-yl)-2-(4-methoxyphenyl)ethyl)-3-((S)-1-(4-chlorophenyl)ethyl)urea]
13 | 285 nM | COc1ccc(C[C@@H](NC(=O)N[C@H](C)c2ccc(Cl)cc2)c2nc3ccccc3[nH]2)cc1 [Example 329, 1-((R)-1-(1H-Benzo[d]imidazol-2-yl)-2-(4-methoxyphenyl)ethyl)-3-((R)-1-(4-chlorophenyl)ethyl)urea]
14 | 205 nM | COc1ccc(C[C@@H](NC(=O)N[C@@H](C)c2ccc(OC)cc2)c2nc3ccccc3[nH]2)cc1 [Example 330, 1-((R)-1-(1H-Benzo[d]imidazol-2-yl)-2-(4-methoxyphenyl)ethyl)-3-((S)-1-(4-methoxyphenyl)ethyl)urea]
15 | 146 nM | COc1ccc(C[C@@H](NC(=O)N[C@@H](C)c2ccc(Br)cc2)c2nc3ccccc3[nH]2)cc1 [Example 331, 1-((R)-1-(1H-Benzo[d]imidazol-2-yl)-2-(4-methoxyphenyl)ethyl)-3-((S)-1-(4-bromophenyl)ethyl)urea]
16 | 101 nM | COc1ccc(C[C@@H](NC(=O)N[C@H](C)c2cccc(OC)c2)c2nc3ccccc3[nH]2)cc1 [Example 332, 1-((R)-1-(1H-Benzo[d]imidazol-2-yl)-2-(4-methoxyphenyl)ethyl)-3-((R)-1-(3-methoxyphenyl)ethyl)urea]

Row | EC50 | Compound
17 | 105 nM | COc1ccc(C[C@@H](NC(=O)N[C@@H](C)c2ccc(C)cc2)c2nc3ccccc3[nH]2)cc1 [Example 333, 1-((R)-1-(1H-Benzo[d]imidazol-2-yl)-2-(4-methoxyphenyl)ethyl)-3-((S)-1-(p-tolyl)ethyl)urea]
18 | 111 nM | COc1ccc(C[C@@H](NC(=O)N[C@@H]2CCc3ccccc32)c2nc3ccccc3[nH]2)cc1 [Example 334, 1-((R)-1-(1H-Benzo[d]imidazol-2-yl)-2-(4-methoxyphenyl)ethyl)-3-((R)-2,3-dihydro-1H-inden-1-yl)urea]
19 | 372 nM | CCC[C@@H](NC(=O)N[C@H](Cc1ccc(OC)cc1)c1nc2ccccc2[nH]1)c1ccccc1 [Example 335, 1-((R)-1-(1H-Benzo[d]imidazol-2-yl)-2-(4-methoxyphenyl)ethyl)-3-((R)-1-phenylbutyl)urea]
20 | 248 nM | COc1ccc(C[C@@H](NC(=O)N[C@H](C)c2ccc(OC)cc2)c2nc3ccccc3[nH]2)cc1 [Example 336, 1-((R)-1-(1H-Benzo[d]imidazol-2-yl)-2-(4-methoxyphenyl)ethyl)-3-((R)-1-(4-methoxyphenyl)ethyl)urea]
21 | 380 nM | COC(=O)c1ccc([C@H](C)NC(=O)N[C@H](Cc2ccc(OC)cc2)c2nc3ccccc3[nH]2)cc1 [Example 337, Methyl 4-((S)-1-(3-((R)-1-(1H-benzo[d]imidazol-2-yl)-2-(4-methoxyphenyl)ethyl)ureido)ethyl)benzoate]
22 | 36 nM | COc1ccc(C[C@@H](NC(=O)NC(C)c2cn3ccsc3n2)c2nc3ccccc3[nH]2)cc1 (stereo partly drawn) [Example 338, 1-((R)-1-(1H-Benzo[d]imidazol-2-yl)-2-(4-methoxyphenyl)ethyl)-3-(1-(imidazo[2,1-b]thiazol-6-yl)ethyl)urea]
23 | 39 nM | COc1ccc(C[C@@H](NC(=O)N[C@H](C(N)=O)c2ccccc2)c2nc3ccccc3[nH]2)cc1 [Example 339, (S)-2-(3-((R)-1-(1H-Benzo[d]imidazol-2-yl)-2-(4-methoxyphenyl)ethyl)ureido)-2-phenylacetamide]
24 | 268 nM | COc1ccc(C[C@@H](NC(=O)NC2(c3ccc(Br)cc3)CC2)c2nc3ccccc3[nH]2)cc1 [Example 340, (R)-1-(1-(1H-Benzo[d]imidazol-2-yl)-2-(4-methoxyphenyl)ethyl)-3-(1-(4-bromophenyl)cyclopropyl)urea]
25 | 397 nM | COc1ccc(C[C@@H](NC(=O)NC2(c3ccc(F)cc3)CC2)c2nc3ccccc3[nH]2)cc1 [Example 341, (R)-1-(1-(1H-Benzo[d]imidazol-2-yl)-2-(4-methoxyphenyl)ethyl)-3-(1-(4-fluorophenyl)cyclopropyl)urea]
26 | 277 nM | COC(=O)c1ccc(C2(NC(=O)N[C@H](Cc3ccc(OC)cc3)c3nc4ccccc4[nH]3)CC2)cc1 [Example 342, (R)-Methyl 4-(1-(3-(1-(1H-benzo[d]imidazol-2-yl)-2-(4-methoxyphenyl)ethyl)ureido)cyclopropyl)benzoate]
27 | 40 nM | COc1ccc(C[C@@H](NC(=O)NC(CCO)c2ccccc2)c2nc3ccccc3[nH]2)cc1 (stereo partly drawn) [Example 343, 1-((R)-1-(1H-Benzo[d]imidazol-2-yl)-2-(4-methoxyphenyl)ethyl)-3-(3-hydroxy-1-phenylpropyl)urea]
28 | 167 nM | CC[C@@H](NC(=O)N[C@H](Cc1ccc(OC)cc1)c1nc2ccccc2[nH]1)c1ccccc1 [Example 344, 1-((R)-1-(1H-Benzo[d]imidazol-2-yl)-2-(4-methoxyphenyl)ethyl)-3-((R)-1-phenylpropyl)urea]
29 | 127 nM | CC[C@H](NC(=O)N[C@H](Cc1ccc(OC)cc1)c1nc2ccccc2[nH]1)c1ccccc1 [Example 345, 1-((R)-1-(1H-Benzo[d]imidazol-2-yl)-2-(4-methoxyphenyl)ethyl)-3-((S)-1-phenylpropyl)urea]
30 | 56 nM | COc1ccc(C[C@@H](NC(=O)NC2CCCc3c(OC)cccc32)c2nc3ccccc3[nH]2)cc1 (stereo partly drawn) [Example 346, 1-((R)-1-(1H-Benzo[d]imidazol-2-yl)-2-(4-methoxyphenyl)ethyl)-3-(5-methoxy-1,2,3,4-tetrahydronaphthalen-1-yl)urea]
31 | 365 nM | COc1ccc(C[C@@H](NC(=O)N[C@@H](C)C2CCCCC2)c2nc3ccccc3[nH]2)cc1 [Example 347, 1-((R)-1-(1H-Benzo[d]imidazol-2-yl)-2-(4-methoxyphenyl)ethyl)-3-((S)-1-cyclohexylethyl)urea]
32 | 26 nM | COc1ccc(C[C@@H](NC(=O)NC2CCc3cc(OC)c(OC)cc32)c2nc3ccccc3[nH]2)cc1 (stereo partly drawn) [Example 348, 1-((R)-1-(1H-Benzo[d]imidazol-2-yl)-2-(4-methoxyphenyl)ethyl)-3-(5,6-dimethoxy-2,3-dihydro-1H-inden-1-yl)urea]
